Data as given in ChEMBL document CHEMBL6134868, “Novel Aryl Sulfonium Modification on Vancomycin to Tackle MRSA and VRE In Vitro and In Vivo through Dual Enhanced Cell-Wall and Membrane Inhibition” (J Med Chem, 2025).
The source made the active and inactive calls. No cut-off for these calls is given here.

Columns and labels:
Enterococcus faecium [1] = test: Antibacterial activity against vancomycin-resistant Enterococcus faecium SC-2022-D2-059 harboring VanA phenotype incubated for 16 to 24 hrs by broth microdilution assay; format: functional; details: time 16-24 hrs
Staphylococcus aureus [2] = test: Antibacterial activity against methicillin-resistant Staphylococcus aureus USA300 LAC incubated for 16 to 24 hrs by broth microdilution assay; format: functional; details: time 16-24 hrs
Staphylococcus aureus [3] = test: Inhibition of peptidoglycan biosynthesis in methicillin-resistant Staphylococcus aureus USA300 LAC assessed as fold increase in accumulation of Park's nucleotide at 5 ug/ml incubated for 2 hrs by RP-HPLC analysis; format: functional; details: dose 5 µg/ml
Acinetobacter baumannii [4] = test: Induction of outer membrane permeability in carbapenem-resistant Acinetobacter baumannii CRAB-1 clinical isolate by NPN dye based analysis; format: functional, organism-based; details: dose 1.33-170 µg/ml
Klebsiella pneumoniae = test: Antibacterial activity against Klebsiella pneumoniae KP-1 incubated for 16 to 24 hrs by broth microdilution assay; format: functional; details: time 16-24 hrs
[5] = Cytotoxicity against mouse AML12 cells assessed as cell viability at 50 mg/L incubated for 72 hrs by CCK8 assay relative to control; format: toxicity, cell-based; details: at 50 µg/mL, read-out: Activity
Escherichia coli = test: Antibacterial activity against Escherichia coli AB1157 incubated for 16 to 24 hrs by broth microdilution assay; format: functional; details: time 16-24 hrs
[6] = Drug concentration in CD-1 mouse at 5 mg/kg, iv measured after 8 hrs; format: ADME, organism-based; details: in vivo, read-out: Drug uptake
Bacteria = test: Antibacterial activity against Gram-positive bacteria incubated for 16 to 24 hrs by broth microdilution assay; format: functional; details: time 16-24 hrs
Acinetobacter baumannii [7] = test: Antibacterial activity against Acinetobacter baumannii ATCC19606 incubated for 16 to 24 hrs by broth microdilution assay; format: functional; details: time 16-24 hrs
Staphylococcus aureus [8] = test: Dissipation of membrane potential in methicillin-resistant Staphylococcus aureus USA300 LAC at 1.3 to 170 ug/ml by DiSC3(5) dye based analysis; format: functional, organism-based; details: dose 1.3-170 µg/ml
[9] = AUC (infinity) in CD-1 mouse at 5 mg/kg, iv measured for 0.05 to 24 hrs by UPLC analysis; format: ADME, organism-based; details: in vivo, time 0.05-24 hrs
Enterococcus faecium [10] = test: Antibacterial activity against vancomycin-resistant Enterococcus faecium SC-2022-D2-059 harboring VanA phenotype infected in ICR mouse assessed as animal survival rate at 5 mg/kg, iv measured for 7 days relative to control; format: functional; details: SC-2022-D2-059, 168 h, time 7 day
[11] = Cytotoxicity against HK-2 cells assessed as cell viability at 50 mg/L incubated for 72 hrs by CCK8 assay relative to control; format: toxicity, cell-based; details: human, at 50 µg/mL, read-out: Activity
Staphylococcus aureus [12] = test: Induction of membrane permeability in methicillin-resistant Staphylococcus aureus USA300 LAC by fluorescence based analysis; format: functional, organism-based; details: dose 2.67-170 µg/ml
Staphylococcus aureus [13] = test: Antibacterial activity against methicillin-resistant Staphylococcus aureus USA300 LAC infected in female BALB/c mouse assessed as animal survival rate at 7 mg/kg, iv measured for 7 days consecutively relative to control; format: functional; details: 168 h, time 7 day
[14] = Half life in CD-1 mouse at 5 mg/kg, iv measured for 0.05 to 24 hrs by UPLC analysis; format: ADME, organism-based; details: in vivo, time 0.05-24 hrs
Pseudomonas aeruginosa = test: Antibacterial activity against Pseudomonas aeruginosa PAO1 incubated for 16 to 24 hrs by broth microdilution assay; format: functional; details: time 16-24 hrs
Enterococcus faecium [15] = test: Antibacterial activity against vancomycin-resistant Enterococcus faecium SC-2022-D2-059 harboring VanA phenotype infected in ICR mouse assessed as animal survival rate at 10 to 20 mg/kg, iv measured for 7 days relative to control; format: functional; details: dose 10-20 mg/kg, time 7 day
[16] = Volume of distribution at steady state in CD-1 mouse at 5 mg/kg, iv measured for 0.05 to 24 hrs by UPLC analysis; format: ADME, organism-based; details: in vivo, time 0.05-24 hrs, read-out: Vdss
Enterococcus faecium [17] = test: Antibacterial activity against vancomycin-resistant Enterococcus faecium Efm-HS-vb02 harboring VanB phenotype incubated for 16 to 24 hrs by broth microdilution assay; format: functional; details: time 16-24 hrs
[18] = Clearance in CD-1 mouse at 5 mg/kg, iv measured for 0.05 to 24 hrs by UPLC analysis; format: ADME, organism-based; details: in vivo, time 0.05-24 hrs
Acinetobacter baumannii [19] = test: Antibacterial activity against carbapenem-resistant Acinetobacter baumannii CRAB-1 clinical isolate incubated for 16 to 24 hrs by broth microdilution assay; format: functional; details: time 16-24 hrs
[20] = Hemolytic activity against rat erythrocytes at 100 ug/ml incubated for 1 hr by absorbance based assay; format: toxicity, cell-based, Erythrocyte; details: erythrocyte, 1 h, dose 100 µg/ml
[21] = AUClast in CD-1 mouse at 5 mg/kg, iv measured for 0.05 to 24 hrs by UPLC analysis; format: ADME, organism-based; details: in vivo, time 0.05-24 hrs
Enterococcus faecium [22] = test: Antibacterial activity against vancomycin-resistant Enterococcus faecium Efm-HS-0649 harboring VanA phenotype incubated for 16 to 24 hrs by broth microdilution assay; format: functional; details: time 16-24 hrs
[23] = MRT (infinity) in CD-1 mouse at 5 mg/kg, iv measured for 0.05 to 24 hrs by UPLC analysis; format: ADME, organism-based; details: in vivo, time 0.05-24 hrs
[24] = Acute toxicity in mouse assessed as animal suvival at 40 mg/kg, iv measured for 7 days; format: organism-based; details: in vivo, 168 h, time 7 day
Enterococcus faecium [25] = test: Antibacterial activity against vancomycin-resistant Enterococcus faecium Efm-HS-08257 harboring VanM phenotype incubated for 16 to 24 hrs by broth microdilution assay; format: functional; details: time 16-24 hrs
Enterococcus faecium [26] = test: Antibacterial activity against vancomycin-resistant Enterococcus faecium Efm-HS-vb01 harboring VanB phenotype incubated for 16 to 24 hrs by broth microdilution assay; format: functional; details: time 16-24 hrs
Staphylococcus aureus [27] = test: Antibacterial activity against vancomycin-intermediate Staphylococcus aureus Mu50 incubated for 16 to 24 hrs by broth microdilution assay; format: functional; details: time 16-24 hrs

## CN[C@H](CC(C)C)C(=O)N[C@H]1C(=O)N[C@@H](CC(N)=O)C(=O)N[C@H]2C(=O)N[C@H]3C(=O)N[C@H](C(=O)N[C@H](C(=O)O)c4cc(O)c(CNCCC[S+](C)CC(O)COc5ccc(-c6ccc(C(F)(F)F)cc6)cc5)c(O)c4-c4cc3ccc4O)[C@H](O)c3ccc(c(Cl)c3)Oc3cc2cc(c3O[C@@H]2O[C@H](CO)[C@@H](O)[C@H](O)[C@H]2O[C@H]2C[C@](C)(N)[C@H](O)[C@H](C)O2)Oc2ccc(cc2Cl)[C@H]1O.O=C([O-])C(F)(F)F (stereo partly specified)
Enterococcus faecium [1]
  MIC: 0.12 µg/mL
Staphylococcus aureus [2]
  MIC: 0.031 µg/mL
Staphylococcus aureus [3]
  fold change (FC): <=3
Acinetobacter baumannii [4]
  Activity: Active
Klebsiella pneumoniae
  MIC: 128 µg/mL
[5]
  viability at 72 h, 50 mg/L: ~100%
Escherichia coli
  MIC: 8 µg/mL
[6]
  concentration at 8 h: ~700 ng/mL
Bacteria
  MIC: ≤ 0.063 µg/mL
Acinetobacter baumannii [7]
  MIC: 16 µg/mL
Staphylococcus aureus [8]
  Activity: Active
[9]
  AUC(0-inf): 42000 ng·h/mL
Enterococcus faecium [10]
  survival at 5 mg/kg: 50%
[11]
  viability at 72 h, 50 mg/L: ~100%
Staphylococcus aureus [12]
  Activity: Dose-dependent-effect
Staphylococcus aureus [13]
  survival at 7 mg/kg: 100%
[14]
  half-life: 3.57 h
Pseudomonas aeruginosa
  MIC: > 128 µg/mL
Enterococcus faecium [15]
  Survival: 100%
[16]
  Vd: 0.566 L/kg
Enterococcus faecium [17]
  MIC: ≤ 0.063 µg/mL
[18]
  clearance: 2.28 mL/min/kg
Acinetobacter baumannii [19]
  MIC: 32 µg/mL
[20]
  Activity: Toxic
[21]
  AUC(0-t): 41600 ng·h/mL
Enterococcus faecium [22]
  MIC: 0.5 µg/mL
[23]
  MRT inf: 3.98 h
[24]
  Activity: Non-toxic
Enterococcus faecium [25]
  MIC: 2 µg/mL
Enterococcus faecium [26]
  MIC: ≤ 0.063 µg/mL
Staphylococcus aureus [27]
  MIC: 0.125 µg/mL
